Assay results taken from patent US10407409B2, “6-(5-hydroxy-1H-pyrazol-1-yl)nicotinamide inhibitors of PHD” (Takeda Pharmaceutical Company Limited, priority 2013, dated 2019).

Assays:
[1] = tested on: HIF1a protein in H9c2 rat cardiomyocytes; assay: Cell-based HIF-alpha stabilization assay (inhibition of PHD in cells); conditions: 24 hrs compound incubation, HIF1a protein by ELISA; for EC50: Rattus norvegicus, H9c2, 24 h, read-out: Inhibition of PHD in cells (pEC50) (converted)
Summary of the method: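 Rat H9c2 cardiomyocytes, cultured 24 h, were treated 24 h with an 11-point serial dilution of compound. HIF1a in whole-cell lysates was quantified by ELISA as % of the maximal desferrioxamine response. EC50 came from curve fitting; EC50pos is the concentration reaching 50% of the desferrioxamine maximum.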

[2] = target: PHD2 enzyme (residues 181-417) (Homo sapiens (Human), UniProt Q9GZT9); assay: Inhibition of PHD enzyme (LC/MS peptide hydroxylation assay); assay type: biochemical; conditions: PHD2 (residues 181-417) 5 nM, 60 min pre-incubation; -log(IC50), IC50 molar
Chain of PHD2 enzyme (residues 181-417) (Q9GZT9 181-417): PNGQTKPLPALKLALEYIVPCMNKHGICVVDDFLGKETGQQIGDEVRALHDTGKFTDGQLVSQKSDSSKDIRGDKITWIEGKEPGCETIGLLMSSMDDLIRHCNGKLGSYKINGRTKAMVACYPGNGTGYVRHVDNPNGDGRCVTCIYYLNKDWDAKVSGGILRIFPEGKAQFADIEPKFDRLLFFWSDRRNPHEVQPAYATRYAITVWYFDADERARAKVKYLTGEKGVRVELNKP
Summary of the method: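 PHD2 (5 nM final) preincubated with inhibitor 60 min at RT in 50 mM HEPES, 50 mM KCl, 0.5 mM TCEP, 2 uM FeCl2, 0.1 mg/ml BSA, pH 7.3. Reaction started with biotin-peptide (1 uM), 2-oxoglutarate (2 uM), ascorbate (1 mM), quenched at 60 min; hydroxylated product by LC/MS, reported as pIC50.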

VEGF = assay: Heart gene changes for vascular endothelial growth factor (VEGF), qRT-PCR; assay type: in vivo, mice; conditions: male C57BL/6 mice, oral, 60 mg/kg, heart, 2 h after dosing
Procedure: Example D Determination of Heart Gene Changes for Vascular Endothelial Growth Factor (VEGF)
PHD inhibitor or vehicle were administered orally to male C57BL/6 in groups of four. The compounds were formulated in 30% hydroxypropyl beta-cyclodextrin in 50 mM Sodium Phosphate pH7.4 at doses of 30 mg/kg and 60 mg/kg. Two hours after dosing the mice were euthanized by CO2 and the hearts were removed quickly, sectioned into 2 pieces; the lower (apical) section was snap frozen and stored at −80° C. and analyzed for VEGF gene changes applying qRT-PCR and using Life Technologies #4392938 and an RNA extraction protocol using Qiagen #74881 RNeasy 96 Universal Tissue Kit. Standards are made from RNA from combined vehicle treated animals at a concentration of 100 μg/mL, a 7 point curve is made with 1:4 dilutions and a blank. Samples are run on using RNA-to-CT 1-Step method using a StepOnePlus Real-Time PCR System from Applied Biosystems Relative quantitation is expressed by dividing the quantity of VEGF by the quantity of the reference gene. Treatment groups and vehicle control were combined and averaged.

For COCCCNC(=O)c1ccc(-n2ncc(-c3ccc(C#N)c(OC)c3C)c2O)nc1 [Example 411, 6-(4-(4-cyano-3-methoxy-2-methylphenyl)-5-hydroxy-1H-pyrazol-1-yl)-N-(3-methoxypropyl)nicotinamide], the EC50 [1] was 0.676 µM and the “PHD Inhibition (pIC50)” value [2] was 8.20.

Cc1cc(C#N)ccc1-c1cnn(-c2ccc(C(=O)N3CC[C@H](N(C)C)C3)cn2)c1O [Example 412, (S)-4-(1-(5-(3-(dimethylamino)pyrrolidine-1-carbonyl)pyridin-2-yl)-5-hydroxy-1H-pyrazol-4-yl)-3-methylbenzonitrile] was tested, and the EC50 [1] was 0.282 µM and the “PHD Inhibition (pIC50)” value [2] was 8.11.

For Cc1cc(C#N)ccc1-c1cnn(-c2ccc(C(=O)N3CC[C@@H](N(C)C)C3)cn2)c1O [Example 413, (R)-4-(1-(5-(3-(dimethylamino)pyrrolidine-1-carbonyl)pyridin-2-yl)-5-hydroxy-1H-pyrazol-4-yl)-3-methylbenzonitrile], the EC50 [1] was 2.09 µM and the “PHD Inhibition (pIC50)” value [2] was 8.10.

In the case of Cc1cc(C#N)ccc1-c1cnn(-c2ccc(C(=O)N3CCN(C4CC4)CC3)cn2)c1O [Example 414, 4-(1-(5-(4-cyclopropylpiperazine-1-carbonyl)pyridin-2-yl)-5-hydroxy-1H-pyrazol-4-yl)-3-methylbenzonitrile], the EC50 [1] is reported as 0.832 µM and the “PHD Inhibition (pIC50)” value [2] is reported as 8.39.

CCCN1CCN(C(=O)c2ccc(-n3ncc(-c4ccc(C#N)cc4C)c3O)nc2)CC1 [Example 415, 4-(5-hydroxy-1-(5-(4-propylpiperazine-1-carbonyl)pyridin-2-yl)-1H-pyrazol-4-yl)-3-methylbenzonitrile] was tested, and the “Inhibition of PHD in cells (pEC50)” value [1] was 6.20 and the “PHD Inhibition (pIC50)” value [2] was 8.41.

With Cc1cc(C#N)ccc1-c1cnn(-c2ccc(C(=O)N3CCC(N(C)C)CC3)cn2)c1O [Example 416, 4-(1-(5-(4-(dimethylamino)piperidine-1-carbonyl)pyridin-2-yl)-5-hydroxy-1H-pyrazol-4-yl)-3-methylbenzonitrile] the EC50 [1] was 1.41 µM and the “PHD Inhibition (pIC50)” value [2] was 7.78.

Cc1cc(C#N)ccc1-c1cnn(-c2ccc(C(=O)N3CC[C@@H]4CN(C)C[C@@H]4C3)cn2)c1O [Example 417, 4-(5-hydroxy-1-(5-((3aR,7aS)-2-methyloctahydro-1H-pyrrolo[3,4-c]pyridine-5-carbonyl)pyridin-2-yl)-1H-pyrazol-4-yl)-3-methylbenzonitrile] was tested, and the EC50 [1] was 0.575 µM and the “PHD Inhibition (pIC50)” value [2] was 7.87.

Cc1cc(C#N)ccc1-c1cnn(-c2ccc(C(=O)N3CCN(CC4CC4)CC3)cn2)c1O [Example 418, 4-(1-(5-(4-(cyclopropylmethyl)piperazine-1-carbonyl)pyridin-2-yl)-5-hydroxy-1H-pyrazol-4-yl)-3-methylbenzonitrile] was tested, and the EC50 [1] was 1.17 µM and the “PHD Inhibition (pIC50)” value [2] was 8.17.

With Cc1cc(C#N)ccc1-c1cnn(-c2ccc(C(=O)N3CCC(CN(C)C)CC3)cn2)c1O [Example 419, 4-(1-(5-(4-((dimethylamino)methyl)piperidine-1-carbonyl)pyridin-2-yl)-5-hydroxy-1H-pyrazol-4-yl)-3-methylbenzonitrile] the EC50 [1] was 0.631 µM and the “PHD Inhibition (pIC50)” value [2] was 7.98.

With Cc1cc(C#N)ccc1-c1cnn(-c2ccc(C(=O)N(C3CC3)C3CCN(C)CC3)cn2)c1O [Example 420, 6-(4-(4-cyano-2-methylphenyl)-5-hydroxy-1H-pyrazol-1-yl)-N-cyclopropyl-N-(1-methylpiperidin-4-yl)nicotinamide] the EC50 [1] was 0.537 µM and the “PHD Inhibition (pIC50)” value [2] was 7.87.

For Cc1cc(C#N)ccc1-c1cnn(-c2ccc(C(=O)N3CCC(N4CCOCC4)CC3)cn2)c1O [Example 421, 4-(5-hydroxy-1-(5-(4-morpholinopiperidine-1-carbonyl)pyridin-2-yl)-1H-pyrazol-4-yl)-3-methylbenzonitrile], the EC50 [1] was 0.661 µM and the “PHD Inhibition (pIC50)” value [2] was 8.31.

In the case of COCCN(C(=O)c1ccc(-n2ncc(-c3ccc(C#N)cc3C)c2O)nc1)C1CCN(C)CC1 [Example 422, 6-(4-(4-cyano-2-methylphenyl)-5-hydroxy-1H-pyrazol-1-yl)-N-(2-methoxyethyl)-N-(1-methylpiperidin-4-yl)nicotinamide], the EC50 [1] is reported as 0.501 µM and the “PHD Inhibition (pIC50)” value [2] is reported as 7.87.

In the case of Cc1cc(C#N)ccc1-c1cnn(-c2ccc(C(=O)N3CCN(CCN(C)C)CC3)cn2)c1O [Example 423, 4-(1-(5-(4-(2-(dimethylamino)ethyl)piperazine-1-carbonyl)pyridin-2-yl)-5-hydroxy-1H-pyrazol-4-yl)-3-methylbenzonitrile], the EC50 [1] is reported as 0.708 µM and the “PHD Inhibition (pIC50)” value [2] is reported as 7.99.

With CCN1CCC(N(C)C(=O)c2ccc(-n3ncc(-c4ccc(C#N)cc4C)c3O)nc2)CC1 [Example 425, 6-(4-(4-cyano-2-methylphenyl)-5-hydroxy-1H-pyrazol-1-yl)-N-(1-ethylpiperidin-4-yl)-N-methylnicotinamide] the EC50 [1] was 0.776 µM and the “PHD Inhibition (pIC50)” value [2] was 7.74.

For COCCCNC(=O)c1ccc(-n2ncc(-c3cc(OC)c(C#N)cc3C)c2O)nc1 [Example 426, 6-(4-(4-cyano-5-methoxy-2-methylphenyl)-5-hydroxy-1H-pyrazol-1-yl)-N-(3-methoxypropyl)nicotinamide], the EC50 [1] was 2.14 µM and the “PHD Inhibition (pIC50)” value [2] was 8.18.

With COCCN1CCC(N(C)C(=O)c2ccc(-n3ncc(-c4ccc(C#N)cc4C)c3O)nc2)CC1 [Example 427, 6-(4-(4-cyano-2-methylphenyl)-5-hydroxy-1H-pyrazol-1-yl)-N-(1-(2-methoxyethyl)piperidin-4-yl)-N-methylnicotinamide] the EC50 [1] was 0.646 µM and the “PHD Inhibition (pIC50)” value [2] was 7.83.

With Cc1cc(C#N)ccc1-c1cnn(-c2ccc(C(=O)N3CCN4CCC3CC4)cn2)c1O [Example 428, (S)-4-(1-(5-(1,4-diazabicyclo[3.2.2]nonane-4-carbonyl)pyridin-2-yl)-5-hydroxy-1H-pyrazol-4-yl)-3-methylbenzonitrile] the EC50 [1] was 0.501 µM and the “PHD Inhibition (pIC50)” value [2] was 7.88.

For CCN(C(=O)c1ccc(-n2ncc(-c3ccc(C#N)cc3C)c2O)nc1)C1CCN(C)CC1 [Example 429, 6-(4-(4-cyano-2-methylphenyl)-5-hydroxy-1H-pyrazol-1-yl)-N-ethyl-N-(1-methylpiperidin-4-yl)nicotinamide], the EC50 [1] was 0.589 µM and the “PHD Inhibition (pIC50)” value [2] was 7.95.

With Cc1cc(-n2ncc(-c3ccc(C#N)cc3)c2O)ncc1C(=O)N1CCN(C)CC1 [Example 430, 4-(5-hydroxy-1-(4-methyl-5-(4-methylpiperazine-1-carbonyl)pyridin-2-yl)-1H-pyrazol-4-yl)benzonitrile] the EC50 [1] was 8.51 µM and the “PHD Inhibition (pIC50)” value [2] was 7.44.

In the case of Cc1cc(-n2ncc(-c3ccc(C#N)cc3)c2O)ncc1C(=O)N(C)C1CCN(C)CC1 [Example 431, 6-(4-(4-cyanophenyl)-5-hydroxy-1H-pyrazol-1-yl)-N,4-dimethyl-N-(1-methylpiperidin-4-yl)nicotinamide], the EC50 [1] is reported as 2.75 µM and the “PHD Inhibition (pIC50)” value [2] is reported as 7.31.

In the case of Cc1cc(C#N)ccc1-c1cnn(-c2ccc(C(=O)N(C)C3CN(C)C3)cn2)c1O [Example 432, 6-(4-(4-cyano-2-methylphenyl)-5-hydroxy-1H-pyrazol-1-yl)-N-methyl-N-(1-methylazetidin-3-yl)nicotinamide], the EC50 [1] is reported as 0.741 µM and the “PHD Inhibition (pIC50)” value [2] is reported as 8.02.

For CCN1CCN(C(=O)c2ccc(-n3ncc(-c4cc(F)c(C#N)cc4C)c3O)nc2)[C@@H](C)C1 [Example 433, (S)-4-(1-(5-(4-ethyl-2-methylpiperazine-1-carbonyl)pyridin-2-yl)-5-hydroxy-1H-pyrazol-4-yl)-2-fluoro-5-methylbenzonitrile], the EC50 [1] was 0.363 µM and the “PHD Inhibition (pIC50)” value [2] was 8.20.

With CCN1CCN(C(=O)c2ccc(-n3ncc(-c4ccc(C#N)cc4C)c3O)nc2)[C@H](C)C1 [Example 434, (R)-4-(1-(5-(4-ethyl-2-methylpiperazine-1-carbonyl)pyridin-2-yl)-5-hydroxy-1H-pyrazol-4-yl)-3-methylbenzonitrile] the EC50 [1] was 1.29 µM and the “PHD Inhibition (pIC50)” value [2] was 8.20.

In the case of CC(C)(C)NC(=O)c1ccc(-n2ncc(-c3cccnc3)c2O)nc1 [Example R1, N-tert-butyl-6-(5-oxo-4-pyridin-3-yl-2,5-dihydro-1H-pyrazol-1-yl)pyridine-3-carboxamide, reference compound], the EC50 [1] is reported as 0.955 µM and the “VEGF % Increase Compared to Control” value (VEGF) is reported as 95.2%.
